The values that follow come from patent US20110021505A1, “Use of sulfonyl-substituted 2-sulfonylaminobenzoic acid N-phenylamides in the treatment of pain” (SANOFI-AVENTIS DEUTSCHLAND GMBH, priority 2007, published 2011).

Consider `COc1cc(NS(=O)(=O)c2ccc(Cl)s2)c(C(=O)Nc2ccc(S(=O)(=O)N(C)Cc3cccnc3)cc2)cc1OC.Cl`, for which the melting point (in general, the temperature, or range, at which the solid turns liquid) amounted to 214 °C. The compound `O=C(Nc1ccc(S(=O)(=O)N2CCSCC2)cc1)c1cc(Cl)ccc1NS(=O)(=O)c1ccc(Cl)cc1` [Example 15, 5-Chloro-2-(4-chloro-phenylsulfonylamino)-N-(4-(thiomorpholine-4-sulfonyl)-phenyl)-benzamide] yielded a melting point of 246 °C. As to `Cc1ccc(S(=O)(=O)Nc2ccc(Cl)cc2C(=O)Nc2ccc(S(=O)(=O)N3CCOCC3)cc2)cc1` [Example 57, 5-Chloro-N-(4-(morpholine-4-sulfonyl)-phenyl)-2-(4-methyl-phenylsulfonylamino)-benzamide], the melting point was determined as 214 °C.

Take `O=C(Nc1ccc(S(=O)(=O)N2CCS(=O)(=O)CC2)cc1)c1cc(Cl)ccc1NS(=O)(=O)c1ccc(Cl)cc1` [Example 92, 5-Chloro-2-(4-chloro-phenylsulfonylamino)-N-(4-(1,1-dioxo-thiomorpholine-4-sulfonyl)-phenyl)-benzamide]: the melting point amounted to 182 °C.
